Earlier results, collected in patent publication US20070048371A1, “Pharmaceutical formulations/composition of guanfacine suitable for single dose form administration daily” (priority 2005, published 2007).
Where a name gives a salt, the structure may show the parent alone.

Settings: white to off-white powder; cited from earlier work

N=C(N)NC(=O)Cc1c(Cl)cccc1Cl [Guanfacine hydrochloride, N-amidino-2-(2,6-dichlorophenyl) acetamide hydrochloride]
solubility in acetone: slightly soluble | solubility in water and alcohol: sparingly soluble
